One series concerns Sphaerotheca fuliginea. Briefly: Sphaerotheca test (cucumber) / protective. The series is classed as in vivo. Conditions: Podosphaera fuliginea, 168 h, read-out: efficacy. As to the method: (§1) To produce a suitable preparation of active compound, 1 part by weight of active compound is mixed with the stated amounts of solvent and emulsifier, and the concentrate is diluted with water to the desired concentration.
To test for protective activity, young plants are sprayed with the active compound preparation at the stated application rate. After the spray coating has dried, the plants are inoculated with an aqueous spore suspension of Sphaerotheca fuliginea. The plants are then placed in a greenhouse at about 23° C. and a relative atmospheric humidity of about 70%.
Evaluation is carried out 7 days after the inoculation. 0% means an efficacy which corresponds to that of the control, whereas an efficacy of 100% means that no infection is observed.

The next series concerns Puccinia recondita. Put plainly: Puccinia test (wheat) / protective. To be noted: 240 h, read-out: efficacy. It counts as in vivo. As to the method: as §1
To test for protective activity, young plants are sprayed with the active compound preparation at the stated application rate. After the spray coating has dried on, the plants are sprayed with a conidia suspension of Puccinia recondita. The plants remain in an incubation cabin at 20° C. and 100% relative atmospheric humidity for 48 hours.
The plants are then placed in a greenhouse at a temperature of about 20° C. and a relative atmospheric humidity of 80% to promote the development of rust pustules.
(§2) Evaluation is carried out 10 days after the inoculation. 0% means an efficacy which corresponds to that of the control, whereas an efficacy of 100% means that no infection is observed.

The next series deals with Podosphaera leucotricha. Briefly: Podosphaera test (apple) / protective. The series is classed as in vivo. Conditions: 240 h, read-out: efficacy. The procedure:
as §1
To test for protective activity, young plants are sprayed with the active compound preparation at the stated application rate. After the spray coating has dried on, the plants are inoculated with an aqueous spore suspension of the apple mildew pathogen Podosphaera leucotricha. The plants are then placed in a greenhouse at about 23° C. and a relative atmospheric humidity of about 70%.
as §2

The test system of the next series is Uromyces appendiculatus. Put plainly: Uromyces test (bean) / protective. To be noted: 240 h, read-out: efficacy. It counts as in vivo. As to the method: as §1
To test for protective activity, young plants are sprayed with the active compound preparation at the stated application rate. After the spray coating has dried on, the plants are inoculated with an aqueous spore suspension of the bean rust pathogen Uromyces appendiculatus and then remain in an incubation cabin at about 20° C. and 100% relative atmospheric humidity for 1 day.
The plants are then placed in a greenhouse at about 21° C. and a relative atmospheric humidity of about 90%.
as §2

For a further series, the system named is Botrytis cinerea. Briefly: Botrytis test (bean) / protective. It counts as in vivo. To be noted: 48 h, read-out: efficacy. As to the method: as §1
To test for protective activity, young plants are sprayed with the active compound preparation at the stated application rate. After the spray coating has dried on, 2 small pieces of agar overgrown with Botrytis cinerea are placed on each leaf. The inoculated plants are then placed in a darkened chamber at about 20° C. and 100% relative atmospheric humidity.
Two days after the inoculation the size of the infected spots on the leaves is evaluated. 0% means an efficacy which corresponds to that of the control, whereas an efficacy of 100% means that no infection is observed.

Where [1] appears, read: cucumber plants, protective spray, active compound concentration 100 ppm, evaluation 7 days after inoculation.
The mark [2] stands for this setting: wheat plants, protective spray, active compound concentration 1000 ppm, evaluation 10 days after inoculation.
The mark [3] stands for this setting: apple plants, protective spray, active compound concentration 100 ppm, evaluation 10 days after inoculation.
Where [4] appears, read: bean plants, protective spray, active compound concentration 10 ppm, evaluation 10 days after inoculation.
The mark [5] stands for this setting: bean plants, protective spray, active compound concentration 250 ppm, evaluation two days after inoculation.

The record followed here is patent US8299302B2 (priority 2007, dated 2012).

Broadly, the logP is the decadic logarithm of the partition coefficient of the neutral form, usually between octanol and water. A lower logP goes with lower lipophilicity.

Where two headings read alike, the source gives them in different places. A value given as a limit tells only on which side of the number the result lay.

Compound “4-[(4′-fluorobiphenyl-4-yl)oxy]-2,5-dimethyl-N-[(1E)-pyrrolidin-1-ylmethylene]aniline [Compound 30]” showed a logP acidic in “logP (acidic, pH 2.3)” (acidic) of 2.62.
In the case of `Cc1cc(Oc2ccc(Br)cc2)c(C)cc1N` [4-(4-Bromophenoxy)-2,5-dimethylaniline], the lipophilicity (logP) in “logP (acidic, pH 2.3)” (pH 2.3, log P (pH 2.3), pH 2.3) was 2.88.
On the same count and under the same terms, the same measure for `Cc1cc(Oc2ccc(C3CCCCC3)cc2)c(C)cc1N` [4-(4-Cyclohexylphenoxy)-2,5-dimethylaniline]: 4.25.
The same measure, in the same setting: the result for `COc1ccc(-c2ccc(Oc3cc(C)c(N)cc3C)cc2)cc1` [4-[4-(4-Methoxyphenyl)phenoxy]-2,5-dimethylaniline] reads 3.06.
As to `CCN(C)C=Nc1cc(C)c(Oc2ccc(-c3ccc(S(=O)(=O)CC)cc3)cc2)cc1C` [Compound 2, N-ethyl-N′-(4-{[4′-(ethylsulfonyl)biphenyl-4-yl]oxy}-2,5-dimethylphenyl)-N-methylimidoformamide], the pest or weed control at 100 ppm with Sphaerotheca fuliginea (setting [1]) and in the series with Podosphaera leucotricha (setting [3]) was not below 70% in each case. Besides, the pest or weed control at 1000 ppm with Puccinia recondita (setting [2]) is not below 70%. This compound also had a logP in the series “logP (acidic, pH 2.3)” (pH 2.3, logP acidic, acidic) of 2.06. Further, in the series on Uromyces appendiculatus (setting [4]), the pest or weed control at 10 ppm is not below 70%.
Consider `CCN(C)C=Nc1cc(C)c(Oc2ccc(-c3ccc(C(F)(F)F)cc3)cc2)cc1C` [Compound 3, N′-(2,5-dimethyl-4-{[4′-(trifluoromethyl)biphenyl-4-yl]oxy}phenyl)-N-ethyl-N-methylimidoformamide], for which, in the series on Botrytis cinerea (setting [5]), the pest or weed control at 250 ppm is not below 70%. Also, the pest or weed control at 100 ppm in the series on Sphaerotheca fuliginea (setting [1]) and with Podosphaera leucotricha (setting [3]) was not below 70% in each case. Besides, in the series on Puccinia recondita (setting [2]), the pest or weed control at 1000 ppm was not below 70%. In the series “logP (acidic, pH 2.3)” (pH 2.3, logP acidic, acidic), this compound yielded a log partition coefficient (logP) of 2.94.
For `CCN(C)C=Nc1cc(C)c(Oc2ccc(-c3ccc(N(C)C)cc3)cc2)cc1C` [Compound 4, N′-(4-{[4′-(dimethylamino)biphenyl-4-yl]oxy}-2,5-dimethylphenyl)-N-ethyl-N-methylimidoformamide], the logP in the series “logP (acidic, pH 2.3)” (pH 2.3, logP acidic, acidic) worked out at 2.13.
As to `CCN(C)C=Nc1cc(C)c(Oc2ccc(-c3ccc(C(C)(C)C)cc3)cc2)cc1C` [Compound 7, N′-(2,5-dimethyl-4-{[4′-(tert-butyl)biphenyl-4-yl]oxy}phenyl)-N-ethyl-N-methylimidoformamide], the pest or weed control at 250 ppm in the series with Botrytis cinerea (setting [5]) is not below 70%. For the same compound, the pest or weed control at 100 ppm in the series with Sphaerotheca fuliginea (setting [1]) and with Podosphaera leucotricha (setting [3]) was not below 70% each time. The log partition coefficient (logP) in “logP (acidic, pH 2.3)” (pH 2.3, logP acidic, acidic) is 3.41.
For `CCN(C)C=Nc1cc(C)c(Oc2ccc(-c3ccc(C(C)=O)cc3)cc2)cc1C` [Compound 8, N′-{4-[(4′-acetylbiphenyl-4-yl)oxy]-2,5-dimethylphenyl}-N-ethyl-N-methylimidoformamide], the pest or weed control at 100 ppm in the series on Sphaerotheca fuliginea (setting [1]) and in the series on Podosphaera leucotricha (setting [3]) was not below 70% in each case. This compound also had a logP in the series “logP (acidic, pH 2.3)” (pH 2.3, logP acidic, acidic) of 2.32. Besides, the pest or weed control at 10 ppm in the series on Uromyces appendiculatus (setting [4]) was not below 70%.
Consider `CCCCO/N=C/c1ccc(-c2ccc(Oc3cc(C)c(N=CN(C)CC)cc3C)cc2)cc1` [Compound 10], for which the logP in the series “logP (acidic, pH 2.3)” (pH 2.3) worked out at 3.51.
Still for that read-out and setting: the result for `CCN(C)C=Nc1cc(C)c(Oc2ccc(-c3ccc(/C=N/OC)cc3)cc2)cc1C` [Compound 12] reads 2.75.
Turning to `CCN(C)C=Nc1cc(C)c(Oc2ccc(-c3ccccc3C(F)(F)F)cc2)cc1C` [Compound 14], in the series on Botrytis cinerea, the pest or weed control at 250 ppm was not below 70%. For the same compound, the pest or weed control at 100 ppm in the series on Sphaerotheca fuliginea and with Podosphaera leucotricha was not below 70% in each case. Moreover, the pest or weed control at 1000 ppm with Puccinia recondita was not below 70%. In the series “logP (acidic, pH 2.3)” (pH 2.3), the log partition coefficient (logP) is 2.77.
On to `CCN(C)C=Nc1cc(C)c(Oc2ccc(-c3ccccc3C(C)C)cc2)cc1C` [Compound 15], for which the pest or weed control at 250 ppm in the series on Botrytis cinerea was not below 70%. Moreover, the pest or weed control at 100 ppm with Sphaerotheca fuliginea and in the series with Podosphaera leucotricha was not below 70% each time. Further, the pest or weed control at 1000 ppm with Puccinia recondita was not below 70%. Further, in “logP (acidic, pH 2.3)” (pH 2.3), the logP was determined as 3.06.
Turning to `CCN(C)C=Nc1cc(C)c(Oc2ccc(-c3ccccc3OC)cc2)cc1C` [Compound 19], the pest or weed control at 250 ppm with Botrytis cinerea is not below 70%. Further, the pest or weed control at 100 ppm in the series on Sphaerotheca fuliginea was not below 70%. Further, in the series on Puccinia recondita, the pest or weed control at 1000 ppm is not below 70%. For the same compound, the log partition coefficient (logP) in the series “logP (acidic, pH 2.3)” (pH 2.3) was found to be 2.49. Also, the pest or weed control at 10 ppm with Uromyces appendiculatus was not below 70%.
Turning to `Cc1cc(Oc2ccc(-c3ccccc3C(F)(F)F)cc2)c(C)cc1/N=C/N1CCCCC1` [Compound 20], the pest or weed control at 250 ppm in the series with Botrytis cinerea was not below 70%. The pest or weed control at 100 ppm in the series on Sphaerotheca fuliginea and in the series on Podosphaera leucotricha was not below 70% in each case. In addition, the pest or weed control at 1000 ppm with Puccinia recondita is not below 70%. In “logP (acidic, pH 2.3)” (pH 2.3), the logP was 2.93.
As for `Cc1cc(Oc2ccc(-c3ccccc3F)cc2)c(C)cc1/N=C/N1CCCCC1` [Compound 21], the pest or weed control at 1000 ppm with Puccinia recondita was not below 70%. Also, the log partition coefficient (logP) in “logP (acidic, pH 2.3)” (pH 2.3) came to 2.98.
Regarding `CC(=O)c1ccccc1-c1ccc(Oc2cc(C)c(/N=C/N3CCCCC3)cc2C)cc1` [Compound 22], in the series on Botrytis cinerea, the pest or weed control at 250 ppm is not below 70%. Besides, the pest or weed control at 100 ppm in the series with Sphaerotheca fuliginea and in the series with Podosphaera leucotricha was not below 70% each time. The lipophilicity (logP) in the series “logP (acidic, pH 2.3)” (pH 2.3) was 3.52.
In the case of `CCc1ccccc1-c1ccc(Oc2cc(C)c(/N=C/N3CCCCC3)cc2C)cc1` [Compound 23], the pest or weed control at 250 ppm in the series with Botrytis cinerea was not below 70%. Also, the pest or weed control at 100 ppm in the series on Sphaerotheca fuliginea and in the series with Podosphaera leucotricha was not below 70% each time. Moreover, the pest or weed control at 1000 ppm in the series on Puccinia recondita is not below 70%. The same compound yielded a lipophilicity (logP) in the series “logP (acidic, pH 2.3)” (pH 2.3) of 3.34.
Turning to `Cc1cc(Oc2ccc(-c3ccccc3C)cc2)c(C)cc1/N=C/N1CCCCC1` [Compound 24], in the series on Botrytis cinerea, the pest or weed control at 250 ppm is not below 70%. In addition, the pest or weed control at 100 ppm in the series on Sphaerotheca fuliginea and in the series with Podosphaera leucotricha was not below 70% each time. For the same compound, the pest or weed control at 1000 ppm in the series with Puccinia recondita is not below 70%. For the same compound, the logP in the series “logP (acidic, pH 2.3)” (pH 2.3) came to 3.22.
On to `Cc1cc(Oc2ccc(-c3ccccc3C(C)C)cc2)c(C)cc1/N=C/N1CCCCC1` [Compound 25], for which the pest or weed control at 250 ppm in the series with Botrytis cinerea is not below 70%. The pest or weed control at 100 ppm in the series with Sphaerotheca fuliginea and with Podosphaera leucotricha was not below 70% in each case. Also, the log partition coefficient (logP) in “logP (acidic, pH 2.3)” (pH 2.3) is 2.46. Besides, the pest or weed control at 10 ppm with Uromyces appendiculatus is not below 70%.
Take `Cc1cc(Oc2ccc(-c3ccccc3Cl)cc2)c(C)cc1/N=C/N1CCCCC1` [Compound 26]: the pest or weed control at 250 ppm with Botrytis cinerea is not below 70%. The pest or weed control at 100 ppm with Sphaerotheca fuliginea and with Podosphaera leucotricha was not below 70% throughout. For the same compound, the pest or weed control at 1000 ppm with Puccinia recondita is not below 70%. The compound also came in with a logP in “logP (acidic, pH 2.3)” (pH 2.3) of 2.77.
In “logP (acidic, pH 2.3)” (pH 2.3, logP acidic, acidic), `Cc1cc(Oc2ccc(-c3ccccc3OCC(C)C)cc2)c(C)cc1/N=C/N1CCCCC1` [Compound 28, 4-[(2′-isobutoxybiphenyl-4-yl)oxy]-2,5-dimethyl-N-[(1E)-piperidin-1-ylmethylene]aniline] gave a lipophilicity (logP) of 3.44.
On the same count and under the same terms, the result for `CCN(C)C=Nc1cc(C)c(Oc2ccc(-c3ccccc3OCC(C)C)cc2)cc1C` [Compound 29, N-ethyl-N′-{4-[(2′-isobutoxybiphenyl-4-yl)oxy]-2,5-dimethylphenyl}-N-methylimidoformamide] reads 3.14.
Same read-out and setting: the same measure for `CCN(C)C=Nc1cc(C)c(Oc2ccc(-c3ccccc3)cc2)cc1C` [Compound 31, N′-[4-(biphenyl-4-yloxy)-2,5-dimethylphenyl]-N-ethyl-N-methylimidoformamide]: 2.64.
Take `Cc1cc(Oc2ccc(C3CCCC3)cc2)c(C)cc1/N=C/N1CCCCC1C` (centres unmarked) [Compound 34, 4-(4-cyclopentylphenoxy)-2,5-dimethyl-N-[(1E)-(2-methylpiperidin-1-yl)methylene]aniline]: the pest or weed control at 1000 ppm in the series on Puccinia recondita (setting [2]) is not below 70%. The same compound returned a log partition coefficient (logP) in the series “logP (acidic, pH 2.3)” (pH 2.3, logP acidic, acidic) of 3.22.
In turn, `Cc1cc(Oc2ccc(C3CCCCC3)cc2)c(C)cc1N=CN(C)C(C)C` [Compound 39, N′-{4-[4-cyclohexyl-phenoxy]-2,5-dimethylphenyl}-N-isopropyl-N-methylimidoformamide] had a log partition coefficient (logP) in the series “logP (acidic, pH 2.3)” (pH 2.3, logP acidic, acidic) of 3.2.
